Test results as given in patent US11413278B2, “Compounds and methods for promoting stress resistance” (priority 2015, dated 2022).
“Also recorded” adds a separate entry of the source. Like-named read-outs stand apart in the source and are kept apart here.

What was measured:
[1] = tested on: WI-38 cells; experiment: Propidium iodide (PI) cell-death imaging upon H2O2 stress; assay type: cell-based, human; settings: for Assay 7: H2O2-resistant, at 10 uM, validated by propidium iodide (PI) cell-death imaging: w/H2O2, 3 hrs/4 hrs/5 hrs, YES/NO; for cytotoxicity at 10 µM: Homo sapiens, WI-38
[2] = tested on: WI-38 cells; experiment: MMS resistance assay; assay type: cell-based, human; settings: for fold induction at 10 µM: Homo sapiens, 12 h, normalized ATP measurement
Summary of the method: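 Resistance to CdCl2 or MMS stress (12 h exposure) was scored in WI-38 fibroblasts pretreated with compound at 0.25–20 μM final, five doses, technical triplicates. MMS plates had compound added 24 h before MMS, after a shift to serum-free DMEM+2% BSA. Significance came from a global variance t-test over two independent runs.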

[3] = tested on: mTOR; experiment: mTOR inhibition (RPS6 phosphorylation status), In-Cell Western; assay type: cell-based, human; settings: for Exp. 1, normalized reduction in p-RPS6/RPS6 ratio / Exp. 3, normalized reduction in p-RPS6/RPS6 ratio: n=4
Summary of the method: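 Read-out is In-Cell Western near-infrared imaging of phospho-RPS6 (Ser-235/236) against total RPS6, using overnight 4° C primary staining and DyLight 680/800 secondaries. Compounds were given to WI-38 cells for 24 hrs at three doses: 5, 10 and 20 μM.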

[4] = tested on: WI-38 cells; experiment: Long-term effects on cell viability (5 days, ATP; morphology, PI imaging); assay type: cell-based; settings: 10 μM; for Luminescence signal for ATP measurement, day-1 Average / Luminescence signal for ATP measurement, day-2 Average / Luminescence signal for ATP measurement, day-3 Average / Luminescence signal for ATP measurement, day-4 Average / Luminescence signal for ATP measurement, day-5 Average / viability at 10 µM: Batch 1; for Luminescence signal for ATP measurement, day-1 Average / Luminescence signal for ATP measurement, day-2 Average / Luminescence signal for ATP measurement, day-3 Average / Luminescence signal for ATP measurement, day-4 Average / Luminescence signal for ATP measurement, day-5 Average: n = 6, day-0 luminescence = 320956 ± 24708; for viability at 10 µM: Homo sapiens, WI-38, 120 h, DMSO ctrl = 100.0%, read-out: ATP luminescence by day-5 normalized; for Luminescence signal for ATP measurement, day-5 Average / viability at 10 µM: day-5;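 as to Luminescence signal for ATP measurement, day-2 Average: compounds at 10 µM with ATP read daily over 5 days of treatment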;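 as to Luminescence signal for ATP measurement, day-3 Average: compounds at 10 µM with ATP read daily over 5 days of treatment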;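 as to Luminescence signal for ATP measurement, day-4 Average: compounds at 10 µM with ATP read daily over 5 days of treatment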;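 as to Luminescence signal for ATP measurement, day-5 Average: compounds at 10 µM with ATP read daily over 5 days of treatment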
[5] = tested on: WI-38 cells; settings: for Percentage of propidium iodide-positive dead cells (no H2O2 stress treatment), at 10 uM: negative control 0.41% ± 0.23%
Method: WI-38 cells were seeded on 384-well plates for 24 hrs and then incubated with small molecules for 24 hrs. […] Images were collected on an INCell Analyzer 2000 (GE) and analyzed with the Developer software.

[6] = tested on: WI-38 cells; settings: for No H2O2 stress treatment, at 10 uM (fold change): normalized ATP measurement; for Assay 1: H2O2-resistant: YES/NO, if NO, possibly due to repeated freezing/thawing of stocks
[7] = H2O2 3 hrs, 10 uM, n = 6, negative control 5.44% ± 0.79%, read-out: Percentage of propidium iodide-positive dead cells (under H2O2 stress treatment), 3 hrs
[8] = H2O2 4 hrs, 10 uM, n = 6, negative control 16.81% ± 1.42%, read-out: Percentage of propidium iodide-positive dead cells (under H2O2 stress treatment), 4 hrs
[9] = H2O2 5 hrs, 10 uM, n = 6, negative control 22.50% ± 1.53%, read-out: Percentage of propidium iodide-positive dead cells (under H2O2 stress treatment), 5 hrs
[10] = pre-treatment at 10 uM, 3.5 hours of H2O2, DMSO control 27.4% ± 6.5%, */**/*** = reduced by one/two/three standard deviations, read-out: Percentage of propidium iodide-positive dead cells (under H2O2 stress treatment), at 10 uM
[11] = score in summary of 38 core set hits
[12] = WI-38 cells, 10 μM, (*) = compromised ability to protect cells from H2O2, could be due to stability issue
[13] = asterisks indicate the loss of the ability to protect cells from H2O2 over time
[14] = derived from dose response curves, 0.6-20 uM, H2O2-resistance of WI-38 cells
[15] = read-out: Est. ED50, dose response 0.6-20 μM, H2O2-resistance
[16] = Exp. 1, WI-38 cells, read-out: Exp. 1, under MMS stress treatment, at 10 uM (fold change)
[17] = Exp. 2, WI-38 cells, read-out: Exp. 2, under MMS stress treatment, at 10 uM (fold change)

Compound | Assay 7: H2O2-resistant, at 10 uM, validated by propidium iodide (PI) cell-death imaging ([1]; 10 uM) | cytotoxicity at 10 µM [1, 7] [%] | cytotoxicity at 10 µM [1, 8] [%] | cytotoxicity at 10 µM [1, 10] [%] | B = MMS resistant [2, 11] | B = MMS resistant ([2]; summary score) | D = Triple resistant ([2]; summary score) | G = mTOR down-regulation ([3]; 2-point score) | G = mTOR down-regulation ([3]; summary score) | Luminescence signal for ATP measurement, day-1 Average [4] | Luminescence signal for ATP measurement, day-2 Average [4] | Luminescence signal for ATP measurement, day-3 Average [4] | Luminescence signal for ATP measurement, day-4 Average [4] | Luminescence signal for ATP measurement, day-5 Average [4] | O = Potential toxicity ([4]; human, 5 days) | Q = Potential toxicity ([4]; human, 5 days) | H2O2-resistant [6, 12] | No H2O2 stress treatment, at 10 uM (fold change) ([6]; WI-38 cells) | H2O2-resistant [6, 13] | EC50 [6, 15] [µM] | also measured
N=C1S/C(=C\c2cn(-c3ccccc3)nc2-c2cccs2)C(=O)N1c1nccs1 [Gr-6C] | YES | 1.17 | 1.39 | 7.9 | 0 | 0 | 0 | 0 | 0 | 435273 | 542716 | 574765 | 624471 | 548865 | 0 | 1 | YES (*) | .096 fold change | YES (*) | 48.5 | cytotoxicity at 10 µM [1, 9]: 6.12%; viability at 10 µM [4]: 53.5%; Percentage of propidium iodide-positive dead cells (no H2O2 stress treatment), at 10 uM [5]: 0.66% ± 0.26%,; EC50 [6, 14]: 16.2 µM
O=C(NCc1cccnc1)/C(=C\c1ccc(Br)cc1)S(=O)(=O)c1ccccc1 [Gr-7B] | YES | 5.88 | 6.44 | 4.7 | 0 | 0 | 0 | 2 | 2 | 311883 | 56498 | 40001 | 44298 | 40768 | 1 | 1 | YES (*) | 0.56 fold change | YES (*) | 24.7 | fold induction at 10 µM [2, 16]: 0.39; fold induction at 10 µM [2, 17]: 1.45; mTOR down-regulation by p-RPS6 assays ([3]; Assay 14(q), at 5 uM, 10 uM & 20 uM): YES; Exp. 1, normalized reduction in p-RPS6/RPS6 ratio ([3]; Exp. 1, In-Cell Western): ~67% (−), at 20 μM; Exp. 1, normalized reduction in p-RPS6/RPS6 ratio ([3]; Exp. 1, at 10 μM, In-Cell Western): ~65% (−), at 10 μM;; Exp. 3, normalized reduction in p-RPS6/RPS6 ratio ([3]; Exp. 3, In-Cell Western): ~53% (−), at 20 μM; Exp. 3, normalized reduction in p-RPS6/RPS6 ratio ([3]; Exp. 3, at 5 μM, In-Cell Western): ~48% (−), at 5 μM;; Exp. 3, normalized reduction in p-RPS6/RPS6 ratio ([3]; Exp. 3, at 10 μM, In-Cell Western): ~45% (−), at 10 μM;; mTOR inhibition (p-RPS6/RPS6), qualitative ([3]; In-Cell Western): mTOR-inhibiting activities; also recorded: consistently reduced the ratios; viability at 10 µM [4]: 4%; Reduction of ATP content after 5 days of continuous incubation ([4]; human, 5 days): more than 40%; PI cell-death imaging without H2O2 (indicating potential toxicity) ([5]; Assay 8(k), without H2O2, at 10 uM): YES; PI-positive dead cells under normal conditions ([5]; WI-38, no H2O2, control 0.4±0.2%): 3.6%±0.7%; Assay 1: H2O2-resistant [6]: YES
O=C1NCCCc2cc(Cl)sc21 [O1] | YES | 5.8 |  | 20.4 | 0 | 0 | 0 | 0 | 0 | 461478 | 722566 | 824266 | 1101026 | 977541 | 0 | 0 | YES | 0.92 fold change | YES | 13.2 | fold induction at 10 µM [2, 16]: 1.2; fold induction at 10 µM [2, 17]: 4.96; viability at 10 µM [4]: 95.2%; Percentage of propidium iodide-positive dead cells (no H2O2 stress treatment), at 10 uM [5]: 0.30% ± 0.13%,; Assay 1: H2O2-resistant [6]: YES; EC50 [6, 14]: 13.2 µM
CC1C(=O)C(C)C(c2cc(Cl)ccc2O)NC1c1cc(Cl)ccc1O (stereo not shown) [O6] | YES | 0.8 | 4.92 | 16.8 | 0 | 0 | 0 | 0 | 0 |  |  |  |  |  | 0 | 0 | YES | 1.07 fold change | YES | 9.8 | cytotoxicity at 10 µM [1, 9]: 9.82%; fold induction at 10 µM [2, 16]: 0.81; fold induction at 10 µM [2, 17]: 0.79; Percentage of propidium iodide-positive dead cells (no H2O2 stress treatment), at 10 uM [5]: 0.36% ± 0.10%,; Assay 1: H2O2-resistant [6]: YES; EC50 [6, 14]: 9.8 µM
O=C(Nc1nc(C23CC4CC(CC(C4)C2)C3)cs1)C(c1ccccc1)c1ccccc1 [O10] | YES | 2.19 | 4.27 | 3.6 | 0 | 0 | 0 | 0 | 0 | 560153 | 740923 | 847945 | 1079863 | 1066130 | 0 | 0 | YES | 1.08 fold change | YES | 9.5 | fold induction at 10 µM [2, 16]: 1.08; fold induction at 10 µM [2, 17]: 4.08; viability at 10 µM [4]: 104%; Percentage of propidium iodide-positive dead cells (no H2O2 stress treatment), at 10 uM [5]: 0.54% ± 0.16%,; Assay 1: H2O2-resistant [6]: YES; EC50 [6, 14]: 9.5 µM
